From US6486199B1, “Spiro and dispiro 1,2,4-trioxolane antimalarials” (Medicines for Malaria Venture MMV International Centre …, priority 2001, dated 2002)
Values after ≈ are worked out from the molar mass of the structure shown. Where two headings read alike, the source gives them in different places. Marks after values point to notes of the source that are not given here.

Assays:
[1] = system: chloroquine-sensitive NF54 strain of P. falciparum; assay: in vitro screen against chloroquine-sensitive NF54 strain of P. falciparum; format: cell-based; conditions: for IC50: Plasmodium falciparum
[2] = system: ANKA strain of P. Berghei; assay: single dose STI in vivo screen in infected Moro SPF mice; conditions: for Activity (%) po / Activity (%) sc: percent reduction in parasitemia day 3 post-infection; for inhibition in vivo at 10 mg/kg: Plasmodium berghei, 72 h; for in vivo activity: 10 mg/kg po/sc data of Table 2
[3] = system: chloroquine-resistant K1 strain of P. falciparum; assay: in vitro screen against chloroquine-resistant K1 strain of P. falciparum; format: cell-based; conditions: for IC50: Plasmodium falciparum
P. berghei [4] = assay: 1-day Peters test against P. berghei in vivo; conditions: for ED50 / ED90: Plasmodium berghei, 24 h; for ED90: read-out: P. berghei (1 day) ED90 po
[5] = differential scanning calorimetry (DSC), thermal stability; format: physicochemical; conditions: thermal decomposition
P. berghei [6] = assay: 4-day Peters test against P. berghei in vivo; conditions: for ED50: Plasmodium berghei, 96 h
[7] = system: adult schistosomes (49-day-old) of Schistosoma mansoni; assay: effect on adult schistosomes (49-day-old) in mice; format: in vivo; conditions: single 400 mg/kg per os; for TWR (%): total worm reduction rate; for Mean total worm burden: x ± SD
Description: Mice were infected with 100 Schistosoma mansoni cercariae […]. Each group was treated per os with OZ compounds at a single dose of 400 mg/kg. Untreated mice served as the control. All groups were killed 4 weeks after treatment and the liver and intestine were removed and separated. The liver and intestine were compressed and alive male and female worms could be seen and counted.

[8] = system: 21-day-old schistosomules of Schistosoma mansoni; assay: effect on 21-day-old schistosomules in mice; format: in vivo; conditions: single 200 mg/kg per os; for FWR (%): female worm reduction rate; for Mean female worm burden: mean ± standard deviation; for TWR (%): total worm reduction rate
Description: […] Each group was treated per os with OZ compounds at a single dose of 200 mg/kg. Untreated mice served as the control. All groups were killed 4 weeks after treatment and the liver and intestine were removed and separated. The liver and intestine were compressed and alive male and female worms could be seen and counted. The effect of the compounds was evaluated by mean total and female worm burden.

[9] = NF54, read-out: IC50 (ng/ml) NF54
[10] = po, read-out: P. berghei (1 day) ED50 po
[11] = sc, read-out: P. berghei (1 day) ED50 sc

C[C@@H]1CC[C@H]2[C@@H](C)C(=O)O[C@@H]3O[C@@]4(C)CC[C@@H]1[C@]32OO4 [Artemisinin, artemisinin, reference compound]
IC50 ([1]; in vitro, NF54 strain, read-out: IC50 (ng/ml) NF54): 1.9 ng/mL (≈ 0.00673 µM) | Activity (%) po ([2]; single 10 mg/kg po): 65% | Activity (%) sc ([2]; single 10 mg/kg sc): 87% | Activity (%) po ([2]; single 100 mg/kg po): 98% | Activity (%) sc ([2]; single 100 mg/kg sc): 100% | Survival (days) po ([2]; single 10 mg/kg po): 6.5 days | Survival (days) sc ([2]; single 10 mg/kg sc): 7.0 days | Survival (days) po ([2]; single 100 mg/kg po, survival to day 30 = cure): 7.3 days | Survival (days) sc ([2]; single 100 mg/kg sc, survival to day 30 = cure): 14 days | IC50 ([3]; in vitro, K1 strain, read-out: IC50 (ng/ml) K1): 1.2 ng/mL (≈ 0.00425 µM) | ED50 (P. berghei [4]; 1 day, po, read-out: P. berghei (1 day) ED50 po): 9.1 mg/kg | ED90 (P. berghei [4]; 1 day, po): 14 mg/kg

C1COC2(CCC3(CC2)OOC2(O3)C3CC4CC(C3)CC2C4)O1 (stereo not drawn) [OZ10, Adamantane-2-spiro-3′-1′,2′,4′,9′,12′-pentaoxadispiro[4.2.4.2]tetradecane]
IC50 [1, 9]: 0.67 ng/mL (≈ 0.00208 µM) | inhibition in vivo at 10 mg/kg ([2]; po, read-out: Activity (%) po): 99.6% | inhibition in vivo at 10 mg/kg ([2]; sc, read-out: Activity (%) sc): 100% | Tm dec. (° C.) [5]: 159.4 °C | IC50 ([3]; K1, read-out: IC50 (ng/ml) K1): 0.4 ng/mL (≈ 0.00124 µM) | P. berghei (1 day) ED90 sc (P. berghei [4]; 1 day, sc): 2.2 mg/kg | ED50 (P. berghei [4]; [10]): 2.3 mg/kg | ED90 (P. berghei [4]; po): 6.3 mg/kg | ED50 (P. berghei [4]; [11]): 0.06 mg/kg | P. berghei (4 day) ED90 po (P. berghei [6]; 4 day, po): 3.0 mg/kg | P. berghei (4 day) ED90 sc (P. berghei [6]; 4 day, sc): 0.9 mg/kg | ED50 (P. berghei [6]; po, read-out: P. berghei (4 day) ED50 po): 1.3 mg/kg | ED50 (P. berghei [6]; sc, read-out: P. berghei (4 day) ED50 sc): 0.5 mg/kg

O=C1CCC2(CCO1)OOC1(O2)C2CC3CC(C2)CC1C3 (stereo not drawn) [OZ17, Adamantane-2-spiro-3′-9′-oxo-1′,2′,4′,8′-tetraoxaspiro[4.6]undecane]
IC50 (ng/ml) NF54 ([1]; in vitro, NF54 strain): > 100 ng/mL | Tm dec. (° C.) [5]: 158.4 °C | IC50 (ng/ml) K1 ([3]; in vitro, K1 strain): 85 ng/mL (≈ 0.289 µM) | Percentage of dead worm [7]: 5.2 (10/191) | Total dead worm [7]: 10 | TWR (%) [7]: 0% | Mean total worm burden [7]: 36.2 ± 13.8 | FWR (%) [8]: 7% | Mean female worm burden [8]: 11.6 ± 3.3^a | TWR (%) [8]: 23%

C1CCCCCC2(CCCCC1)OOC1(O2)C2CC3CC(C2)CC1C3 (stereo not drawn) [OZ20, Adamantane-2-spiro-3′-1′,2′,4′-trioxaspiro[4.11]hexadecane]
IC50 [1, 9]: 20 ng/mL (≈ 0.0574 µM) | Tm dec. (° C.) [5]: 170.5 °C | IC50 ([3]; K1, read-out: IC50 (ng/ml) K1): 15 ng/mL (≈ 0.043 µM) | in vitro potency, fold less potent than the analog ([3]; in vitro): order of magnitude | P. berghei (1 day) ED90 sc (P. berghei [4]; 1 day, sc): 10 mg/kg | ED50 (P. berghei [4]; [10]): 4.3 mg/kg | ED90 (P. berghei [4]; po): 9.7 mg/kg | ED50 (P. berghei [4]; [11]): 7.1 mg/kg | Percentage of dead worm [7]: 0 | Total dead worm [7]: 0 | TWR (%) [7]: 0% | Mean total worm burden [7]: 38.6 ± 3.6 | FWR (%) [8]: 0% | Mean female worm burden [8]: 13.8 ± 5.5 | TWR (%) [8]: 0%

O=C1CCC2(CC1)OOC1(CCCCCCCCCCC1)O2 [OZ21, 3-Oxo-7,20,21-trioxadispiro[5.1.11.2]heneicosane]
IC50 [1, 9]: 25 ng/mL (≈ 0.0805 µM) | in vivo activity [2]: all in vivo activity was lost | Activity (%) po ([2]; single 10 mg/kg po): 0/0% | Activity (%) sc ([2]; single 10 mg/kg sc): 0/0% | Tm dec. (° C.) [5]: 190.7 °C | IC50 ([3]; K1, read-out: IC50 (ng/ml) K1): 14 ng/mL (≈ 0.0451 µM) | in vitro potency, fold less potent than the analog ([3]; in vitro): 70 fold | Percentage of dead worm [7]: 0 | Total dead worm [7]: 0 | TWR (%) [7]: 0% | Mean total worm burden [7]: 36.2 ± 9.0 | FWR (%) [8]: 0% | Mean female worm burden [8]: 15.0 ± 9.7 | TWR (%) [8]: 0%

C1CC2(CCO1)OOC1(O2)C2CC3CC(C2)CC1C3 (stereo not drawn) [OZ22, Adamantane-2-spiro-3′-1′,2′,4′,8′-tetraoxaspiro[4.5]decane]
IC50 [1, 9]: 0.56 ng/mL (≈ 0.0021 µM) | inhibition in vivo at 10 mg/kg ([2]; po, read-out: Activity (%) po): 35% | inhibition in vivo at 10 mg/kg ([2]; sc, read-out: Activity (%) sc): 99.6% | IC50 ([3]; K1, read-out: IC50 (ng/ml) K1): 0.32 ng/mL (≈ 0.0012 µM) | FWR (%) [8]: 76% | Mean female worm burden [8]: 3.0 ± 1.9^b | TWR (%) [8]: 75%

O=[N+]([O-])c1ccc(NN=C2CCC3(CC2)OOC2(O3)C3CC4CC(C3)CC2C4)c([N+](=O)[O-])c1 (stereo not drawn) [OZ29, Adamantane-2-spiro-3′-1′,2′,4′-trioxaspiro[4.5] decan-8′-one 2,4-dinitrophenylhydrazone]
IC50 [1, 9]: 13 ng/mL (≈ 0.0284 µM) | Activity (%) po ([2]; single 10 mg/kg po): 0/0% | Activity (%) sc ([2]; single 10 mg/kg sc): 0/0% | Survival (days) po ([2]; single 10 mg/kg po): 5.0/5.0 days | Survival (days) sc ([2]; single 10 mg/kg sc): 5.0/5.0 days | Tm dec. (° C.) [5]: 155.7 °C | IC50 ([3]; K1, read-out: IC50 (ng/ml) K1): 9.7 ng/mL (≈ 0.0212 µM) | Percentage of dead worm [7]: 0 | Total dead worm [7]: 0 | TWR (%) [7]: 13.4% | Mean total worm burden [7]: 31.0 ± 13.7^a | FWR (%) [8]: 20% | Mean female worm burden [8]: 10.0 ± 3.7^a | TWR (%) [8]: 28%

O=C(NN=C1CCC2(CC1)OOC1(O2)C2CC3CC(C2)CC1C3)Nc1ccccc1 (stereo not drawn) [OZ30, Adamantane-2-spiro-3′-1′,2′,4′-trioxaspiro[4.5]decan-8′-one 4-phenylsemicarbazone]
IC50 [1, 9]: 1.3 ng/mL (≈ 0.00316 µM) | Tm dec. (° C.) [5]: 174.8 °C | IC50 ([3]; K1, read-out: IC50 (ng/ml) K1): 0.65 ng/mL (≈ 0.00158 µM) | IC50 ([3]; in vitro, K1 and NF54 strains not distinguished, read-out: IC50): < 5 ng/mL | P. berghei (4 day) ED90 po (P. berghei [6]; 4 day, po): <10/>10 mg/kg | ED50 (P. berghei [6]; 4 day, po, read-out: P. berghei (4 day) ED50 po): < 10 mg/kg

CC1(C)COC2(CCC3(CC2)OOC2(CC(C)(C)CC(C)(C)C2)O3)OC1 [OZ36, 2,2,4,4,14,14-Hexamethyl-7,12,16,19,20-pentaoxatrispiro[5.1.2.5.2.2]icosane]
IC50 [1, 9]: 62 ng/mL (≈ 0.168 µM) | in vivo activity [2]: all in vivo activity was lost | Activity (%) po ([2]; single 10 mg/kg po): 0/0% | Activity (%) sc ([2]; single 10 mg/kg sc): 0/0% | Survival (days) po ([2]; single 10 mg/kg po): 5.7/5.7 days | Survival (days) sc ([2]; single 10 mg/kg sc): 5.7/5.7 days | Tm dec. (° C.) [5]: 201.7 °C | IC50 ([3]; K1, read-out: IC50 (ng/ml) K1): 24 ng/mL (≈ 0.0651 µM) | in vitro potency, fold less potent than the analog ([3]; in vitro): ~20 fold | Percentage of dead worm [7]: 0 | Total dead worm [7]: 0 | TWR (%) [7]: 0% | Mean total worm burden [7]: 40.2 ± 12.2 | FWR (%) [8]: 12% | Mean female worm burden [8]: 11.0 ± 4.0^a | TWR (%) [8]: 16%

c1ccc2c(c1)CCCC21OOC2(O1)C1CC3CC(C1)CC2C3 (stereo not drawn) [OZ84, Adamantane-2-spiro-3′-1′,2′,4′-trioxolane-5′-spiro-1″-3″,4″-dihydro-2″H-naphthalene]
IC50 (ng/ml) NF54 ([1]; in vitro, NF54 strain): /1.9 ng/ml | in vivo activity [2]: good | Tm dec. (° C.) [5]: 164.5 °C | in vitro potency ([3]; in vitro, strains not distinguished): very active
